# According to PMC10817943 (Nature Communications, 2024):
# “And” between values parts separate entries of the source, which are not always exact repeats. Equal entries are not always repeated. Where two headings read alike, the source gives them in different places. Numbered stars: 1 amine (or outer) side, 2 acyl side, 3 side chain; on linkers, the order of the positions; unused ones are H or OH. Bridge positions count the residues as written; N and C are the ends. Square brackets hold non-standard residues; d marks the D form. Peptide text beside a SMILES is read from it. * marks the point of attachment. ξ: configuration not given here. X1 = CCC1CC(C(=O)[*:2])N([*:1])C1; Butanoyl(2-oxo) = CCC(=O)C(=O)*; ξPro(4ξ-Me) = CC1CNC(C(=O)O)C1; NMeT = CN[CH](C(=O)O)[CH](C)O; NMeL = CN[CH](CC(C)C)C(=O)O; hLeu = CC(C)CC[CH](N)C(=O)O; NMeV = CN[CH](C(=O)O)C(C)C
# Experiments:
# [1] = test system: M. tuberculosis (Mtb) strain H37Ra; assay: microbe, parasite or virus in culture; assay type: cell-based; conditions: Mycobacterium tuberculosis, read-out: MIC Mtb H37Ra
# [2] = test system: M. tuberculosis (Mtb) strain H37Rv; assay: microbe, parasite or virus in culture; assay type: cell-based, Mycobacterium tuberculosis
# [3] = test system: M. smegmatis (Msmeg) strain mc^2155; assay: microbe, parasite or virus in culture; assay type: cell-based; conditions: Mycolicibacterium smegmatis, MC^2155, read-out: MIC M. smegmatis mc^2155
# [4] = test system: M. smegmatis mc^2155 GM^R; assay: microbe, parasite or virus in culture; assay type: cell-based; conditions: Mycolicibacterium smegmatis, MC^2155, read-out: MIC M. smegmatis mc^2155 GM^R
# [5] = test system: M. marinum (Mm) strain M (ATCC BAA-535); assay: microbe, parasite or virus in culture; assay type: cell-based; conditions: Mycobacterium marinum, ATCCBAA535, read-out: MIC M. marinum strain M
# [6] = test system: CHO-K1 cells; assay: cells; assay type: cell-based, Chinese hamster (Cricetulus griseus); conditions: Cricetulus griseus, CHO-K1, 120 h, read-out: IC50 CHO-K1
# [7] = biological target: M. smegmatis DnaN (msDnaN) (Mycolicibacterium smegmatis, UniProt A0QND6); assay: biochemical; assay type: binding; conditions: for Response (Average): MST source data, runs #1-#3, listed as MP A
# [8] = test system: S. aureus Newman; assay: microbe, parasite or virus in culture; assay type: cell-based; conditions: Staphylococcus aureus, read-out: MIC S. aureus Newman
# [9] = test system: B. subtilis DSM 10; assay: microbe, parasite or virus in culture; assay type: cell-based; conditions: Bacillus subtilis, DSM10, read-out: MIC B. subtilis DSM 10
# [10] = test system: E. coli BW25113; assay: microbe, parasite or virus in culture; assay type: cell-based; conditions: Escherichia coli, BW25113, read-out: MIC E. coli BW25113
# [11] = test system: C. freundii DSM 30039; assay: microbe, parasite or virus in culture; assay type: cell-based; conditions: Citrobacter freundii, DSM30039, read-out: MIC C. freundii DSM 30039
# [12] = test system: A. baumannii DSM 30008; assay: microbe, parasite or virus in culture; assay type: cell-based; conditions: Acinetobacter baumannii, DSM30008, read-out: MIC A. baumannii DSM 30008
# [13] = test system: M. smegmatis mc^2155 reporter strain harboring PrecA-LUX; conditions: for luminescence induction: RecA reporter, ciprofloxacin 0.06 µg/mL, MPA 0.125 µg/mL
# [14] = test system: M. smegmatis mc^2155 reporter strain harboring PradA-LUX; conditions: for luminescence induction: RadA reporter, ciprofloxacin 0.06 µg/mL, MPA 0.125 µg/mL
# [15] = test system: M. tuberculosis (Mtb) strain H37Rv; conditions: cited from earlier work
# Sequence of M. smegmatis DnaN (msDnaN) (A0QND6 whole entry, looked up): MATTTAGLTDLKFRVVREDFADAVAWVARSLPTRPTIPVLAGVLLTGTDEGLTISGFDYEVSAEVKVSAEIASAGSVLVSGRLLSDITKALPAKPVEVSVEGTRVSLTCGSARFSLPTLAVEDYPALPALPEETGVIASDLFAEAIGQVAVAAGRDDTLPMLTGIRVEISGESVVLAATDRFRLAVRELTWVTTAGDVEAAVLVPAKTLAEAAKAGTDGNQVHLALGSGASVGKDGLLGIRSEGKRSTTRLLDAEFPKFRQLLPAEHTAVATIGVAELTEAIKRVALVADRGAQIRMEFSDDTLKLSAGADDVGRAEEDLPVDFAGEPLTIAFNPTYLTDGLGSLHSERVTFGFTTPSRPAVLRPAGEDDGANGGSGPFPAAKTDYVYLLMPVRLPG
smiles,measurement,setting,value
CCC(=O)C(=O)N(C)C(C(=O)N1CC(CC)CC1C(=O)N(C)C1C(=O)NC(CC(C)C)C(=O)N2CC(C)CC2C(=O)NC(CCC(C)C)C(=O)N(C)C(C(C)C)C(=O)N2CCCC2C(=O)N(C)C(CC(C)C)C(=O)NCC(=O)OC1C)C(C)C (centres unmarked) [Mycoplanecin A] ({Butanoyl(2-oxo)}-[NMeV][X1][NMeT]L[ξPro(4ξ-Me)][hLeu][NMeV]P[NMeL]G; ester 3-C; configuration not given here),MIC,[1],0.03 µg/mL
same,lower MIC against Mtb H37Rv than initially reported,[2],four-fold
same,MIC,"[2]; Mycobacterium tuberculosis, H37RV, read-out: MIC Mtb H37Rv",0.102 µg/mL
same,MIC,[3],0.0625 µg/mL
same,MIC,[4],4 µg/mL
same,MIC,[5],0.5 µg/mL
same,IC50,[6],> 37 µg/mL
same,Kd,[7],95.4 ± 58 nM
same,Response (Average),[7]; Dose 1.22E-08 (unit not given),901.8 and 900.043 and 900.321
same,Response (Average),[7]; Dose 1.25E-05 (unit not given),916.3 and 910.333 and 908.121
same,Response (Average),[7]; Dose 1.53E-09 (unit not given),900.5 and 901.137 and 897.639
same,Response (Average),[7]; Dose 1.56E-06 (unit not given),912 and 910.977 and 908.315
same,Response (Average),[7]; Dose 1.95E-07 (unit not given),911.4 and 903.026 and 901.872
same,Response (Average),[7]; Dose 2.44E-08 (unit not given),900.5 and 898.574 and 901.47
same,Response (Average),[7]; Dose 2.50E-05 (unit not given),912.5 and 912.466 and 910.671
same,Response (Average),[7]; Dose 3.05E-09 (unit not given),907.2 and 900.824 and 900.843
same,Response (Average),[7]; Dose 3.13E-06 (unit not given),913.2 and 908.487 and 910.005
same,Response (Average),[7]; Dose 3.91E-07 (unit not given),910.5 and 900.599 and 903.733
same,Response (Average),[7]; Dose 4.88E-08 (unit not given),904.4 and 896.349 and 895.973
same,Response (Average),[7]; Dose 5.00E-05 (unit not given),912 and 911.551 and 911.531
same,Response (Average),[7]; Dose 6.10E-09 (unit not given),899.2 and 900.167 and 896.514
same,Response (Average),[7]; Dose 6.25E-06 (unit not given),912 and 910.662 and 909.72
same,Response (Average),[7]; Dose 7.81E-07 (unit not given),913.8 and 908.369 and 909.33
same,Response (Average),[7]; Dose 9.77E-08 (unit not given),902.5 and 896.716 and 900.856
same,MIC,[8],> 64 µg/mL
same,MIC,[9],> 64 µg/mL
same,MIC,[10],> 64 µg/mL
same,MIC,[11],> 64 µg/mL
same,MIC,[12],> 64 µg/mL
same,induction of SOS response through RecA (luminescence),"[13]; 2x MIC, listed as MP A",Strong induction of luminescence
same,luminescence induction,[13]; elapsed time 0:00:00,1234 RLU
same,luminescence induction,[13]; elapsed time 3:00:00,8420 RLU
same,luminescence induction,[13]; elapsed time 6:00:00,19572 RLU
same,luminescence induction,[13]; elapsed time 9:00:00,19402 RLU
same,luminescence induction,[13]; elapsed time 12:00:00,19729 RLU
same,luminescence induction,[13]; elapsed time 15:00:00,23383 RLU
same,luminescence induction,[13]; elapsed time 18:00:00,24012 RLU
same,luminescence induction,[13]; elapsed time 21:00:00,23254 RLU
same,luminescence induction,[13]; elapsed time 24:00:00,21764 RLU
same,luminescence induction,[13]; elapsed time 27:00:00,21831 RLU
same,luminescence induction,[13]; elapsed time 30:00:00,22602 RLU
same,luminescence induction,[13]; elapsed time 33:00:00,24786 RLU
same,luminescence induction,[13]; elapsed time 36:00:00,30979 RLU
same,luminescence induction,[13]; elapsed time 39:00:00,43998 RLU
same,luminescence induction,[13]; elapsed time 42:00:00,72104 RLU
same,luminescence induction,[13]; elapsed time 45:00:00,126348 RLU
same,luminescence induction,[13]; elapsed time 48:00:00,167800 RLU
same,luminescence induction,[13]; elapsed time 51:00:00,276102 RLU
same,luminescence induction,[13]; elapsed time 54:00:00,398120 RLU
same,luminescence induction,[13]; elapsed time 57:00:00,382129 RLU
same,luminescence induction,[13]; elapsed time 60:00:00,236913 RLU
same,luminescence induction,[13]; elapsed time 63:00:00,123029 RLU
same,luminescence induction,[13]; elapsed time 66:00:00,65825 RLU
same,luminescence induction,[13]; elapsed time 69:00:00,39152 RLU
same,luminescence induction,[13]; elapsed time 72:00:00,26573 RLU
same,luminescence induction,[13]; elapsed time 75:00:00,20127 RLU
same,luminescence induction,[13]; elapsed time 78:00:00,16583 RLU
same,luminescence induction,[13]; elapsed time 81:00:00,14319 RLU
same,luminescence induction,[13]; elapsed time 84:00:00,12316 RLU
same,luminescence induction,[13]; elapsed time 87:00:00,11375 RLU
same,induction of DNA repair through RadA (luminescence),"[14]; 2x MIC, listed as MP A",Strong induction of luminescence
same,luminescence induction,[14]; elapsed time 0:00:00,121 RLU
same,luminescence induction,[14]; elapsed time 3:00:00,1545 RLU
same,luminescence induction,[14]; elapsed time 6:00:00,2517 RLU
same,luminescence induction,[14]; elapsed time 9:00:00,2232 RLU
same,luminescence induction,[14]; elapsed time 12:00:00,2473 RLU
same,luminescence induction,[14]; elapsed time 15:00:00,2636 RLU
same,luminescence induction,[14]; elapsed time 18:00:00,2684 RLU
same,luminescence induction,[14]; elapsed time 21:00:00,2416 RLU
same,luminescence induction,[14]; elapsed time 24:00:00,2295 RLU
same,luminescence induction,[14]; elapsed time 27:00:00,2095 RLU
same,luminescence induction,[14]; elapsed time 30:00:00,2147 RLU
same,luminescence induction,[14]; elapsed time 33:00:00,2090 RLU
same,luminescence induction,[14]; elapsed time 36:00:00,2617 RLU
same,luminescence induction,[14]; elapsed time 39:00:00,3126 RLU
same,luminescence induction,[14]; elapsed time 42:00:00,4043 RLU
same,luminescence induction,[14]; elapsed time 45:00:00,5111 RLU
same,luminescence induction,[14]; elapsed time 48:00:00,7463 RLU
same,luminescence induction,[14]; elapsed time 51:00:00,8233 RLU
same,luminescence induction,[14]; elapsed time 54:00:00,11519 RLU
same,luminescence induction,[14]; elapsed time 57:00:00,17058 RLU
same,luminescence induction,[14]; elapsed time 60:00:00,25987 RLU
same,luminescence induction,[14]; elapsed time 63:00:00,36814 RLU
same,luminescence induction,[14]; elapsed time 66:00:00,80633 RLU
same,luminescence induction,[14]; elapsed time 69:00:00,73655 RLU
same,luminescence induction,[14]; elapsed time 72:00:00,45431 RLU
same,luminescence induction,[14]; elapsed time 75:00:00,26035 RLU
same,luminescence induction,[14]; elapsed time 78:00:00,15293 RLU
same,luminescence induction,[14]; elapsed time 81:00:00,10478 RLU
same,luminescence induction,[14]; elapsed time 84:00:00,7153 RLU
same,luminescence induction,[14]; elapsed time 87:00:00,4415 RLU
same,MIC against Mtb H37Rv initially reported,[15],0.39 µg/mL
